# Data published in US20050101595A1, “N-containing cycloalkyl-substituted amino-thiazole derivatives and pharmaceutical compositions for inhibiting cell proliferation and methods for their use” (PFIZER INC., priority 2003, published 2005).
# Assays:
# [1] = molecular target: CDK2/Cyclin A (Homo sapiens, UniProt P24941); assay: Inhibition of CDK2/Cyclin A Retinoblastoma Kinase Activity; format: biochemical; details: 0.03 μM compound, Table 4
# How it was run: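 Radiometric filter-binding readout of phosphate transfer to an Rb substrate fragment by purified CDK2/truncated cyclin A at 10 or 19 nM. Run at pH 7.4 with 25 μM ATP, 30 °C, 60–75 min, linear rates; background without enzyme subtracted, Ki from competitive-inhibition models.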
# [2] = molecular target: human CDK4 and genetically truncated (1-264) cyclin D3 (Homo sapiens, UniProt P11802); assay: Inhibition of CDK4/Cyclin D Retinoblastoma Kinase Activity; format: biochemical; details: 0.03 μM compound, Table 4
# human CDK4 and genetically truncated (1-264) cyclin D3, sequence (P11802 whole entry, the tested form may be a part): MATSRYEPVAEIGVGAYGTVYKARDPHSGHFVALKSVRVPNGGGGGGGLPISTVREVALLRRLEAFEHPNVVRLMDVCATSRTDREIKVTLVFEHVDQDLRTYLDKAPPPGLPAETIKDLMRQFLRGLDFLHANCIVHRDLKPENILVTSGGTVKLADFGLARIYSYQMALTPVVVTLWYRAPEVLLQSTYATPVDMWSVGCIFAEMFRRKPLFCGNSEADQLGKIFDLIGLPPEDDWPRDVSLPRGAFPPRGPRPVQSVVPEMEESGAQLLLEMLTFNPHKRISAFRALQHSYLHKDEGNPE
# human CDK4 and genetically truncated (1-264) cyclin D3, sequence (P30281 1-264 partner): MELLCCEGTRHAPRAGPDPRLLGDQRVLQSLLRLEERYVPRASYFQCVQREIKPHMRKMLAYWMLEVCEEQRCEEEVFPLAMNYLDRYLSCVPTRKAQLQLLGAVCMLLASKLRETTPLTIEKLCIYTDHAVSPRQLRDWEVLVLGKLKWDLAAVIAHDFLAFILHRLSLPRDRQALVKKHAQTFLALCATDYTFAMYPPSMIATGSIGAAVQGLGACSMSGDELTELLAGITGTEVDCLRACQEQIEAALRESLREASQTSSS
# How it was run: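 Apparent Ki values come from competitive or competitive tight-binding inhibition fits of background-corrected 32P/33P incorporation into His-tagged Rb fragment (386-928), captured on nitrocellulose. Reaction: 5 nM insect-cell-expressed human CDK4 with cyclin D3 (1-264), 25 μM ATP, pH 7.4 HEPES, 2% DMSO, 30° C., 20 min, extended to 60 min for tight-binding inhibitors.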
# [3] = system: HCT-116 cell line; assay: Inhibition of cell growth, tetrazolium salt (MTT) assay; format: cell-based; details: HCT-116, Table 4; for HCT-116 % Inhibition at 0.1 μM: 0.1 μM compound; for HCT-116 % Inhibition at 0.25 μM: 0.25 μM compound
# How it was run: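 Cells in McCoy's 5A medium were left 4 h, then given graded compound concentrations in 0.5% (v/v) DMSO and incubated three to five days at 37° C (5% CO2). MTT was added to 0.2 mg/mL for 4 h more; DMSO-solubilized formazan was read at 540 nm against 0.5% DMSO-only controls.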
Compound,CDK2 % Inhibition at 0.03 μM [1] [%],CDK4 % Inhibition at 0.03 μM [2] [%],HCT-116 % Inhibition at 0.1 μM [3] [%],HCT-116 % Inhibition at 0.25 μM [3] [%],CDK2 % Inhibition at 0.03 μM ([1]; 0.03 µM) [%],CDK4 % Inhibition at 0.03 μM ([2]; 0.03 µM) [%],HCT-116 % Inhibition at 0.1 μM ([3]; 0.1 µM) [%],HCT-116 % Inhibition at 0.25 μM ([3]; 0.25 µM) [%]
Nc1nc(NC2CCN(C(=O)/C=C/c3ccccc3)CC2)sc1C(=O)c1c(F)cccc1F [Example Q45],21,47,0,31,,,,
C/C=C/C(=O)N1CCC(Nc2nc(N)c(C(=O)c3c(F)cccc3F)s2)CC1 [Example Q46],−9,25,0,27,,,,
CCOC(=O)CC(=O)N1CCC(Nc2nc(N)c(C(=O)c3c(F)cccc3F)s2)CC1 [Example Q47],−13,9,0,25,,,,
Nc1nc(NC2CCN(C(=O)CCc3ccccc3)CC2)sc1C(=O)c1c(F)cccc1F [Example Q48],5,48,0,19,,,,
COC(=O)CCC(=O)N1CCC(Nc2nc(N)c(C(=O)c3c(F)cccc3F)s2)CC1 [Example Q49],16,24,0,28,,,,
CCOC(=O)CCC(=O)N1CCC(Nc2nc(N)c(C(=O)c3c(F)cccc3F)s2)CC1 [Example Q50],24,42,7,39,,,,
Nc1nc(NC2CCN(C(=O)C(Cl)(c3ccccc3)c3ccccc3)CC2)sc1C(=O)c1c(F)cccc1F [Example Q51],4,22,0,34,,,,
Nc1nc(NC2CCN(C(=O)c3ccccc3I)CC2)sc1C(=O)c1c(F)cccc1F [Example Q52],24,53,0,24,,,,
Nc1nc(NC2CCN(C(=O)c3ccc(I)cc3)CC2)sc1C(=O)c1c(F)cccc1F [Example Q53],60,83,0,22,,,,
Nc1nc(NC2CCN(C(=O)C3CC3)CC2)sc1C(=O)c1c(F)cccc1F [Example Q54],−2,18,0,35,,,,
Nc1nc(NC2CCN(C(=O)C3CCC3)CC2)sc1C(=O)c1c(F)cccc1F [Example Q56],12,14,0,35,,,,
Nc1nc(NC2CCN(C(=O)C3CCCC3)CC2)sc1C(=O)c1c(F)cccc1F [Example Q57],32,40,0,32,,,,
Nc1nc(NC2CCN(C(=O)CCC3CCCC3)CC2)sc1C(=O)c1c(F)cccc1F [Example Q58],29,53,0,25,,,,
Nc1nc(NC2CCN(C(=O)C3CCCCC3)CC2)sc1C(=O)c1c(F)cccc1F [Example Q59],10,14,0,30,,,,
N#Cc1ccc(C(=O)N2CCC(Nc3nc(N)c(C(=O)c4c(F)cccc4F)s3)CC2)cc1 [Example Q60],37,67,0,37,,,,
Nc1nc(NC2CCN(C(=O)c3cccs3)CC2)sc1C(=O)c1c(F)cccc1F [Example Q61],,,,,41,49,0,34
Nc1nc(NC2CCN(C(=O)c3cccc4ccccc34)CC2)sc1C(=O)c1c(F)cccc1F [Example Q62],33,49,12,53,,,,
Nc1nc(NC2CCN(C(=O)c3ccc4ccccc4c3)CC2)sc1C(=O)c1c(F)cccc1F [Example Q63],39,57,5,25,,,,
Nc1nc(NC2CCN(C(=O)c3cccs3)CC2)sc1C(=O)c1c(F)cccc1F [Example Q64],,,,,45,48,7,25
Nc1nc(NC2CCN(C(=O)Cc3cccs3)CC2)sc1C(=O)c1c(F)cccc1F [Example Q65],39,31,3,27,,,,
Nc1nc(NC2CCN(C(=O)c3ccc4c(c3)C(=O)OC4=O)CC2)sc1C(=O)c1c(F)cccc1F [Example Q66],7,29,7,34,,,,
Nc1nc(NC2CCN(C(=O)c3cnc4ccccc4n3)CC2)sc1C(=O)c1c(F)cccc1F [Example Q67],13,50,9,30,,,,
Nc1nc(NC2CCN(C(=O)c3ccccc3[N+](=O)[O-])CC2)sc1C(=O)c1c(F)cccc1F [Example Q68],41,51,4,33,,,,
Nc1nc(NC2CCN(C(=O)c3cccc([N+](=O)[O-])c3)CC2)sc1C(=O)c1c(F)cccc1F [Example Q69],54,80,1,24,,,,
